Assay [1] relates to Substance P Induced Plasma Extravasation. The experiment in a line: Antagonism of substance P induced plasma extravasation in guinea-pigs. In kind it is in vivo, guinea-pig. To be noted: Cavia porcellus, 1 hour prior to substance P. How it is done:
Antagonism of Substance P Induced Plasma Extravasation in Guinea-pigs
Plasma travasation was induced by injection of substance P (2 mg/kg) in the femoral artery of female guinea-pigs. Evans Blue dye (30 mg/kg) was injected simultaneously. The test compound or solvent was administered subcutaneous (s.c.) or orally (p.o.) 1 hour prior to substance P injection. 10 minutes after challenge, the animals were checked for blue colouring (a direct measure for plasma extravasation) of the nose, the forepaws, and the conjunctiva. 30 minutes after challenge, the animals were sacrificed by CO2 gas inhalation and checked for blue colouring of the trachea and the urinary bladder. […]

The subject of assay [2] is Substance P Induced Relaxation of the Pig Coronary Arteries. The experiment in a line: Antagonism of substance P induced relaxation of the pig coronary arteries. As to conditions: 30 min incubation. How it is done:
Antagonism of Substance P Induced Relaxation of the Pig Coronary Arteries
Segments of coronary arteries taken from pigs (killed by injection of an overdose of sodium pentobarbital) were inverted and mounted for recording of isometric tension in organ baths (volume 20 ml) with the endothelium at the outside. The preparations were bathed in Krebs-Henseleit solution. The solution was kept at 37° C. and gassed with a mixture of O2 /CO2 (95/5). After stabilisation of the preparations, prostaglandin F2α (10^-5 M) was administered to induce a contraction. This was repeated until contractile responses became stable. Then prostaglandin F2α was again administered and substance P (3×10^-10 M and 10^-9 M cumulatively) was added. Substance P induced endothelium dependent relaxations. After washing away the agonists, a known concentration of a compound of formula (I) was added. After an incubation period of 30 minutes, prostaglandin F2α (10^-5 M) and the same concentrations of substance P as described above were again administered in the presence of the compound to be tested.

Setting [3] is: po, 10 min, p.o., conjunctiva, read-out: lowest active dose (LAD), conjunctiva.
Where [4] appears, read: po, 10 min, p.o., forepaws, read-out: lowest active dose (LAD), forepaws.
Setting [5] is: po, 10 min, p.o., nose, read-out: lowest active dose (LAD), nose.
Setting [6] is: po, 0.5 h, p.o., trachea, read-out: lowest active dose (LAD), trachea.
Setting [7] is: po, 0.5 h, p.o., urinary bladder, read-out: lowest active dose (LAD), urinary bladder.
Setting [8] is: test compound concentration 3 × 10^-9 (unit not given).
Where [9] appears, read: sc, 10 min, s.c., conjunctiva, read-out: lowest active dose (LAD), conjunctiva.
Where [10] appears, read: sc, 10 min, s.c., forepaws, read-out: lowest active dose (LAD), forepaws.
Where [11] appears, read: sc, 10 min, s.c., nose, read-out: lowest active dose (LAD), nose.
The mark [12] stands for this setting: sc, 0.5 h, s.c., trachea, read-out: lowest active dose (LAD), trachea.
[13] abbreviates: sc, 0.5 h, s.c., urinary bladder, read-out: lowest active dose (LAD), urinary bladder.
The mark [14] stands for this setting: test compound concentration 3 × 10^-8 (unit not given).

Read-outs that look alike come from different tables or passages of the source.

For the molecule `O=C(c1cc(C(F)(F)F)cc(C(F)(F)F)c1)N1CC[C@H](N2CCC(=C3c4ccccc4CCn4c3nc3ccccc34)CC2)C[C@H]1Cc1ccccc1` (relative stereo) [Compound 72], the minimal effective dose in assay [1] (setting [3]), in assay [1] (setting [4]), in assay [1] (setting [5]), in assay [1] (setting [6]) and in assay [1] (setting [7]) was 10 mg/kg each time. Besides, the “% inhibition of the response to 10^-9 M substance P” value in assay [2] (setting [8]) is on record as 97.4%.

On to `Cc1cc(C)cc(C(=O)N2CC[C@H](N3CCC(=C4c5ccsc5C(=O)Cn5ccnc54)CC3)C[C@@H]2Cc2ccccc2)c1` (relative stereo) [Compound 111], for which the minimal effective dose in assay [1] (setting [9]), in assay [1] (setting [10]), in assay [1] (setting [11]), in assay [1] (setting [12]) and in assay [1] (setting [13]) was 10 mg/kg each time. Further, in assay [2] (setting [8]), the “% inhibition of the response to 10^-9 M substance P” value was 22.6%.

With `O=Cc1cnc2n1CCc1ccccc1C2=C1CCN([C@H]2CCN(C(=O)c3cc(C(F)(F)F)cc(C(F)(F)F)c3)[C@@H](Cc3ccccc3)C2)CC1` (racemic) [Compound 11, (±)-cis-1-[3,5-bis(trifluoromethyl)benzoyl]-4-[4-(3-formyl-5,6-dihydro-11H-imidazo[2,1-b][3]benzazepin-11-ylidene)-1-piperidinyl]-2-(phenylmethyl)piperidine], the minimal effective dose in assay [1] (setting [3]), in assay [1] (setting [4]), in assay [1] (setting [5]), in assay [1] (setting [6]) and in assay [1] (setting [7]) was 10 mg/kg throughout. Moreover, the “% inhibition of the response to 10^-9 M substance P” value in assay [2] (setting [8]) is 96.1%.

`Cc1cc(C)cc(C(=O)N2CC[C@@H](N3CCC(=C4c5ccccc5CCn5c(CO)cnc54)CC3)C[C@@H]2Cc2ccccc2)c1` (relative stereo) [Compound 20]: the minimal effective dose in assay [1] (setting [9]), in assay [1] (setting [10]), in assay [1] (setting [11]), in assay [1] (setting [12]) and in assay [1] (setting [13]) was 2.5 mg/kg each time. Besides, the “% inhibition of the response to 10^-9 M substance P” value in assay [2] (setting [8]) is 9.5%.

With `Cc1cc(C)cc(C(=O)N2CC[C@@H](N3CCC(=C4c5ccsc5C(=O)Cn5ccnc54)CC3)C[C@@H]2Cc2ccccc2)c1` (relative stereo) [Compound 112], the minimal effective dose in assay [1] (setting [9]) was 0.63 mg/kg; in assay [1] (setting [10]) it was 0.63 mg/kg; in assay [1] (setting [11]) it was 0.63 mg/kg; in assay [1] (setting [12]) it was 10 mg/kg; in assay [1] (setting [13]) it was 2.5 mg/kg. Besides, the “% inhibition of the response to 10^-9 M substance P” value in assay [2] (setting [8]) is on record as 66.7%.

As to `Cc1cc(C)cc(C(=O)N2CCC(N3CCC(C4c5ccccc5Cn5ccnc54)CC3)CC2Cc2ccccc2)c1` (stereo not drawn) [Compound 108], the minimal effective dose in assay [1] (setting [9]), in assay [1] (setting [10]), in assay [1] (setting [11]), in assay [1] (setting [12]) and in assay [1] (setting [13]) was 10 mg/kg throughout. Further, the “% inhibition of the response to 10^-9 M substance P” value in assay [2] (setting [8]) is given as 2.6%.

For the molecule `Cc1cc(C)cc(C(=O)N2CC[C@H](N3CCC(=C4c5ccsc5CCn5ccnc54)CC3)C[C@H]2Cc2ccccc2)c1` (relative stereo) [Compound 39], the minimal effective dose in assay [1] (setting [9]) is 2.5 mg/kg; in assay [1] (setting [10]) it was 2.5 mg/kg; in assay [1] (setting [11]) it was 2.5 mg/kg; in assay [1] (setting [12]), 10 mg/kg; in assay [1] (setting [13]), 10 mg/kg. Further, the “% inhibition of the response to 10^-9 M substance P” value in assay [2] (setting [8]) was found to be 42.9%.

Regarding `O=C(c1cc(C(F)(F)F)cc(C(F)(F)F)c1)N1CC[C@@H](N2CCC(=C3c4ccccc4OCn4ccnc43)CC2)C[C@@H]1Cc1ccccc1` (relative stereo) [Compound 114], the minimal effective dose in assay [1] (setting [9]) came out at 2.5 mg/kg; in assay [1] (setting [10]), 10 mg/kg; in assay [1] (setting [11]), 2.5 mg/kg; in assay [1] (setting [12]), 10 mg/kg; in assay [1] (setting [13]), 10 mg/kg. Besides, in assay [2] (setting [8]), the “% inhibition of the response to 10^-9 M substance P” value was found to be 100.0%.

In the case of `O=C(c1cc(C(F)(F)F)cc(C(F)(F)F)c1)N1CC[C@H](N2CCC(=C3c4ccccc4CCn4c(CO)cnc43)CC2)C[C@@H]1Cc1ccccc1` (racemic) [Compound 4, (±)-cis-1-[3,5-bis(trifluoromethyl)benzoyl]-4-[4-[5,6-dihydro-3-(hydroxymethyl)-11H-imidazo[2,1-b][3]benzazepin-11-ylidene]-1-piperidinyl]-2-(phenylmethyl)piperidine], the minimal effective dose in assay [1] (setting [9]), in assay [1] (setting [10]), in assay [1] (setting [11]), in assay [1] (setting [12]) and in assay [1] (setting [13]) was 10 mg/kg throughout. Further, in assay [2] (setting [14]), the “% inhibition of the response to 10^-9 M substance P” value turned out to be 97.0%.

On to `Cc1cc(C)cc(C(=O)N2CC[C@H](N3CCC(=C4c5ccccc5CCn5ccnc54)CC3)C[C@H]2Cc2ccccc2)c1` (relative stereo) [Compound 41], for which the minimal effective dose worked out at 2.5 mg/kg in assay [1] (setting [9]); 10 mg/kg in assay [1] (setting [10]); 10 mg/kg in assay [1] (setting [11]); 10 mg/kg in assay [1] (setting [12]); 10 mg/kg in assay [1] (setting [13]). The “% inhibition of the response to 10^-9 M substance P” value in assay [2] (setting [8]) came to 40.6%.

For the molecule `Cn1ccc2c1CCn1ccnc1C2=C1CCN([C@@H]2CCN(C(=O)c3cc(C(F)(F)F)cc(C(F)(F)F)c3)[C@@H](Cc3ccccc3)C2)CC1` (racemic) [Compound 2, (±)-trans-1-[3,5-bis(trifluoromethyl)benzoyl]-4-[4-(5,6,7,10-tetrahydro-7-methylimidazo[1,2-a]pyrrolo[3,2-d]azepin-10-ylidene)-1-piperidinyl]-2-(phenylmethyl)piperidine], the minimal effective dose in assay [1] (setting [9]) came to 0.16 mg/kg; in assay [1] (setting [10]) it was 0.16 mg/kg; in assay [1] (setting [11]), 0.16 mg/kg; in assay [1] (setting [12]), 2.5 mg/kg; in assay [1] (setting [13]), 2.5 mg/kg. For the same molecule, the “% inhibition of the response to 10^-9 M substance P” value in assay [2] (setting [14]) turned out to be 96.5%.

Regarding `COC(=O)c1cnc2n1CCc1ccccc1C2=C1CCN([C@H]2CCN(C(=O)c3cc(C(F)(F)F)cc(C(F)(F)F)c3)[C@@H](Cc3ccccc3)C2)CC1` (racemic) [Compound 17, (±)-methyl cis-11-[1-[1-[3,5-bis(trifluoromethyl)benzoyl]-2-(phenylmethyl)-4-piperidinyl]-4-piperidinylidene]-6,11-dihydro-5H-imidazo[2,1-b][3]benzazepine-3-carboxylate], the minimal effective dose in assay [1] (setting [3]), in assay [1] (setting [4]), in assay [1] (setting [5]), in assay [1] (setting [6]) and in assay [1] (setting [7]) was 10 mg/kg throughout. Also, in assay [2] (setting [8]), the “% inhibition of the response to 10^-9 M substance P” value is recorded as 35.3%.

Consider `Cc1cc(C)cc(C(=O)N2CC[C@@H](N3CCC(=C4c5ccccc5CCn5c(C=O)cnc54)CC3)C[C@@H]2Cc2ccccc2)c1` (relative stereo) [Compound 25], for which the minimal effective dose came to 2.5 mg/kg in assay [1] (setting [9]); 2.5 mg/kg in assay [1] (setting [10]); 2.5 mg/kg in assay [1] (setting [11]); 10 mg/kg in assay [1] (setting [12]); 10 mg/kg in assay [1] (setting [13]). Also, the “% inhibition of the response to 10^-9 M substance P” value in assay [2] (setting [8]) worked out at 100.0%.

For `Cc1cnc2n1CCc1ccccc1C2=C1CCN([C@H]2CCN(C(=O)c3cc(C(F)(F)F)cc(C(F)(F)F)c3)[C@H](Cc3ccccc3)C2)CC1` (relative stereo) [Compound 54], the minimal effective dose in assay [1] (setting [9]), in assay [1] (setting [10]), in assay [1] (setting [11]), in assay [1] (setting [12]) and in assay [1] (setting [13]) was 2.5 mg/kg throughout. In assay [2] (setting [8]), the “% inhibition of the response to 10^-9 M substance P” value was 69.8%.

As to `O=C(c1cc(C(F)(F)F)cc(C(F)(F)F)c1)N1CC[C@H](N2CCC(=C3c4ccccc4OCn4ccnc43)CC2)C[C@@H]1Cc1ccccc1` (relative stereo) [Compound 113], the minimal effective dose in assay [1] (setting [9]), in assay [1] (setting [10]), in assay [1] (setting [11]), in assay [1] (setting [12]) and in assay [1] (setting [13]) was 10 mg/kg each time. Further, the “% inhibition of the response to 10^-9 M substance P” value in assay [2] (setting [8]) came to 87.9%.
